Columns and labels:
smooth muscle cells = details: cited from earlier work
Mm5MT mammary tumors = details: for tumor growth (in words): mice, 27 mM ML-7 osmotic pump or 25 mg/kg etoposide i.p., 4 weeks, only the etoposide effect statistically significant; for tolerability on physical examination: mouse, in vivo
Procedure: To investigate the anticancer activity of ML-7 in vivo, Mm5MT cells were injected into the right flanks of female mice as follows. Mm5MT cells grown in culture were harvested immediately before injection into syngeneic MMTV-C3H/HeM mice. Cells were washed to remove serum and 10^6 cells were resuspended in 100 μl of serum-free DMEM. Healthy, MMTV-free female mice (14-20 weeks old) were anesthetized with ether and 10^6 cells were injected subcutaneously into the right flank. The mice were randomly divided into four groups of five mice, each, and treated with vehicle, ML-7, etoposide or ML-7 plus etoposide. Drug administration was started 1 week after the cells were injected. To deliver ML-7, a small horizontal incision was made in the interscapular area and a 200 μl osmotic pump (Alzet, Cupertino, Calif.) filled with either 27 mM ML-7 in 50% DMSO or 50% DMSO (vehicle control) was implanted and the wound closed. […] When given, 25 mg/kg etoposide was injected intraperitoneally on the first 3 days of every week for 4 weeks (days 7-9, 14-16, 21-23 and 28-30) (Nakamura el al 2003, Cancer Sci 94:119-24). The mice were sacrificed with ether after 4 weeks of drug administration and tumors were removed, weighed and processed for analysis.
Histological analysis of the tumors was conducted as follows. The excised tumours were gently patted dry and weighed using a Mettler digital balance. Tumors were then sectioned into 2 mm slices, fixed in 10% neutral buffered formalin, routinely processed and embedded in paraffin. […] Photomicrographs documenting the entire section were collected and areas of necrotic and viable tumor were determined using the manual tracing tools within MetaMorph 6.2 (Universal Imaging Corporation, Downingtown, Pa.).

MLL prostate tumors = MLL prostate tumors in Copenhagen rats; format: in vivo, rat; details: for TUNEL positive nuclei in tumors: 300 cells from randomly chosen fields, control 19.2%
Procedure: To test the anticancer effect of ML-7 in a rat prostate cancer model as follows. MLL cells grown in culture as described above were harvested and washed in serum-free Hank's buffer. The cells were suspended in 500 μl serum-free Hank's and 10^6 cells were injected subcutaneously into the right flank of 12-week old male Copenhagen rats anesthetized with ether. […] The rats were randomly divided into four groups, five in each group. The rats received injections of ML-7 or vehicle via the jugular vein every 4 days for 2 weeks. ML-7 was used at the dose of 35 mg/kg. Etoposide was injected intraperitoneal injection (IP) at the maximum tolerant dose of 50 mg/m^2 daily (Muenchen et al., 2000, Anticancer Res 20:735-40), The rats were sacrificed with ether 14 days after the start of drug treatment. The tumors were removed, weighed and processed as described above.
Tumor sections were also examined for apotosis using TUNEL staining Sections were deparaffinized and rehydrated according to standard protocol. Tissue sections were permeabilized by placing slides in 10 mM citrate buffer (pH 6.0) and applying 350W microwave irradiation for 5 min. Tissue sections were then stained with TMR Red-labelled terminal deoxynucleotidyl transferase dUTP nick-end labeling (TUNEL) enzyme reagent using the In Situ Cell Death Detection kit (Roche Molecular Biochemicals, Indianapolis, Ind.) as described by the manufacturer. Sections stained with the labeling solution without the terminal transferase were used as negative control. Tissue sections were finally mounted using Vectashield containing DAPI and examined using a Zeiss LSM 510 laser confocal microscope.

[1] = tested on: precancerous mammary alveolar lesions (MAL); assay: Mouse mammary gland organ culture, DMBA-induced mammary alveolar lesions (MAL); format: cell-based
Procedure: To determine the effects of inhibiting MLCK in mammary tumors, an in vitro mammary cancer model was used as follows. Mammary glands obtained from young Balb/c mice that are exposed to 7,12-dimethylbenz(a)anhracene (DMBA) for 24 hours in culture form precancerous lesions in 24 days (Mehta et al., 2000, J Natl Cancer Instit 92:418-23). In this experiment, 70 mammary glands from 35 Balb/c mice were divided into seven groups of 10 glands each and incubated in serum-free medium containing insulin, prolactin (5 μg/ml each), aldosterone and hydrocortisone (1 μg/ml each) for 10 days. DMBA (2 μg/ml) was included in the medium for 24 hours on day 3. The glands were incubated for an additional 14 days in the absence of hormones except insulin. This allows the regression of the normal mammary alveolar structures. […] Chemopreventive agents were included in the medium during the first 10 days. The glands were fixed in formalin and stained with alum carmine and evaluated for MAL. Percent inhibition was calculated by comparing the incidence in the control glands with the treated groups.

MLC-P in MLL cells = assay: MLC-P by urea/glycerol gel-immunoblotting in MLL cells; format: cell-based, rat; details: 5 μM ML-7, 30 μM etoposide or both
Procedure: (§1) MLC-P expression was measured in the cells using urea/glycerol gel-immunoblotting as follows. […] The unphosphoryiated and phosphorylated forms of MLC20 were separated using urea/glycerol PAGE, transferred to nitrocellulose and probed with an affinity purified antibody to MLC20. This antibody recognizes the unphosphoryiated and phosphorylated forms of MLC20. Immunoreactive bands were visualized using enhanced chemiluminescence (ECL) detection reagents (Amersham Pharmacia Biotech, Piscataway, N.J.) (Fazal et al., 2005, Mol Cell Biol 25:6259-66).
To determine if ML-7 stimulates the ability of etoposide to induce apoptosis and retard tumor growth widely, the effects of ML-7 and etoposide on MLL prostate cancer cells were determined. In this case, pre-treated MLL cells were grown in culture with 5 μM ML-7 before adding varying concentrations of etoposide from 1 to 1000 μlM.

[2] = tested on: Mm5MT mouse mammary cancer cells; assay: Apoptosis by FACS (annexin V and PI) in Mm5MT cells; format: cell-based
Procedure: (§2) Mm5MT or MLL cells (200,000 cells per well) were seeded in 6-well dishes one day before drug treatment and cultured as described above.
(§3) On the day of the experiment, media was changed to DMEM supplemented with 0.5% FBS and the cells were treated with drugs as defined by the specific experimental protocol. […] At least 10,000 cells were counted per analysis and cells that stained positive for annexin V and PI were judged to be apoptotic.
The cells were then treated with trypsin, washed twice with cold PBS and re-suspended in 100 μl of buffer containing 10 mM Hepes, pH 7.4, 140 mM NaCl and 2.5 mM CaCl2 (binding buffer). Then, 5 μl of FITC-conjugated annexin V (Pharmingen, San Diego, Calif.) and 10 μl of propidium iodide (PI) (50 μg/ml) were added and cells were incubated in the dark at room temperature for 15 min.

SHR = assay: Systolic blood pressure (tail-cuff) in SHR, drug given continuously for 3 weeks by osmotic pump; format: in vivo, rat; details: SHR 16 weeks old at start; osmotic pump, continuous 3 weeks; vehicle 221.6
Procedure: The importance of regulating MLCK expression by Ras signaling in vivo was further investigated by treating SHR with U0126 continuously for 3 weeks. U0126 is a specific inhibitor MEK (Favata et al., 1998J. Biol. Chem. 273: 18623-18632), an upstream regulator of ERK in the Ras signaling pathway (Chien & Hoshijima, 2002, Id.). […] In these experiments, Systolic blood pressure (SBP) was measured using tail-cuff sphygmomanometry (IITC Incorporated/Life Sciences Institute, Woodland Hills Calif.). Drugs were delivered via an osmotic pump (DURECT Corporation, Cupertino, Calif.) implanted subcutaneously in the shoulder. The pumps (having a 2 mL capacity at a delivery rate of 2.45 μL/hour) were filled with 13.5 mM U0126 (BIOMOL Research Laboratories, Plymouth Meeting, Pa.) dissolved in 50% DMSO or vehicle alone. Three weeks later, rats were sacrificed and aortas were removed. Some vessels were processed for histology, while other tissue was immediately placed in ice-cold acetone containing 10% trichloroacetic acid (TCA) and 10 mM dithiothreitol (DTT). Endothelial cells were removed by gently rubbing the inside of the vessels with a cell lifter and connective tissue was removed by dissection. The cleaned vessels were then frozen on dry ice and stored at −80° C. for biochemical analysis.
Another experiment was conducted to determine if inhibiting Ras signaling could decrease blood pressure in SHR.

MLC-P in Mm5MT cells = assay: MLC-P by urea/glycerol gel-immunoblotting in Mm5MT cells; format: cell-based, mouse; details: 10 μM ML-7, 30 μM etoposide or both, 16 hours
Procedure: as §1

[3] = tested on: MLL rat prostate cancer cells; assay: Apoptosis by FACS (annexin V and PI) in MLL cells; format: cell-based
Procedure: as §2, §3

SMILES | apoptosis in smooth muscle cells (smooth muscle cells) | tumor growth (in words) (Mm5MT mammary tumors) | tolerability on physical examination (Mm5MT mammary tumors) | TUNEL positive nuclei in tumors (MLL prostate tumors) | decrease in tumor weight (MLL prostate tumors; Copenhagen rats, ML-7 35 mg/kg every 4 days, etoposide 50 mg/m^2 daily IP, 14 days, vs. vehicle control) [%] | inhibition of MAL development ([1]; 0.1 μM, compared to control) | inhibition of MAL development ([1]; 1 μM, compared to a 70% incidence in the control glands) [%] | MLC-P (MLC-P in MLL cells) | apoptosis by ML-7 by itself ([2]; 10 μM ML-7, 0 etoposide) | apoptotic cells (annexin V and PI positive) ([2]; 5-25 μM ML-7, 16 h) | systolic blood pressure at the end of the 3-week treatment period (SHR) [mmHg] | MLC-P (MLC-P in Mm5MT cells) | apoptotic cells (annexin V and PI positive) ([3]; 5-25 μM ML-7, 16 h) | inhibition of the incidence of lesion formation ([1]; 1 and 10 μM, compared to control) | EC50 ([3]; Rattus norvegicus, with ML-7 (5 μM pretreatment), read-out: concentration of etoposide required for inducing apoptosis in 50% of the cells) [µM]
O=S(=O)(c1cccc2c(I)cccc12)N1CCCNCC1 [ML-7] | induces apoptosis | decreased | tolerated these drugs without visible signs of discomfort | 40,6% | 29.6 | 40% | 58 | decreased | significantly increased | dose-dependent increase | 165.0±3.9 | decreased | dose-dependent increase |  | 
COc1cc([C@@H]2c3cc4c(cc3[C@@H](O[C@@H]3O[C@@H]5CO[C@@H](C)O[C@H]5[C@H](O)[C@H]3O)[C@H]3COC(=O)[C@H]23)OCO4)cc(OC)c1O [etoposide] |  | decreased | tolerated these drugs without visible signs of discomfort | 35.8% |  | did not affect |  | smaller decrease |  |  |  | decreased |  | 40-46% | 68

Reference: US20090054328A1, “Reagents and Methods for Modulating Gene Expression Related to Hypertension” (The Board of Trustees of the University of Illinois, priority 2005, published 2009)
